The conditions of series [1]: cited from earlier work; for Reported half-life in humans: (average) serum half-life, ref Xu et al. (2020) for PFHpA, Olsen et al. (2007), Li et al. (2018), Xu et al. (2020) for PFOA, PFHxS, PFOS, Olsen et al. (2009) for PFBS; for Reported (average) serum half-life in humans: ref Olsen et al. (2009) for PFBS, Xu et al. (2020) for PFHpA.
A further series addresses T1, human URAT1 (Homo sapiens, UniProt Q96S37).
T1 construct: expressed in transfected cells; host or cells: HEK293 cells transduced with recombinant baculovirus (CMV promoter)
T1 sequence (Q96S37 1-553): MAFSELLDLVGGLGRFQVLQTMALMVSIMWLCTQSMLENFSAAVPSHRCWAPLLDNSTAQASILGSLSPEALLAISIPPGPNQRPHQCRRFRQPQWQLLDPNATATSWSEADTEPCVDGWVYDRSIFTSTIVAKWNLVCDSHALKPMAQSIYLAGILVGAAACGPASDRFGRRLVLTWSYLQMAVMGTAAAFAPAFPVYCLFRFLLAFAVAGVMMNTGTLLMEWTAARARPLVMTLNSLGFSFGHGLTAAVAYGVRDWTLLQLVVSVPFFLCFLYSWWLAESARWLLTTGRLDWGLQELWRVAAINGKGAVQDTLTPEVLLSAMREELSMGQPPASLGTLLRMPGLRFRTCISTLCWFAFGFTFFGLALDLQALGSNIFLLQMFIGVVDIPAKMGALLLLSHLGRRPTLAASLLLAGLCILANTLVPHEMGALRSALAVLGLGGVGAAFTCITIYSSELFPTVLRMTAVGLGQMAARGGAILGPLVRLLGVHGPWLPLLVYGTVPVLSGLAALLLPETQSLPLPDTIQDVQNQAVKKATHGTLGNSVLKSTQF
In words: Screening of cellular PFAS accumulation in URAT1-transfected vs control-transfected HEK293 cells (PFAS mixture). The conditions noted are these: yes/no as identified in vitro in this study. In kind it is cell-based. An excerpt: (§1) The recombinant baculoviruses that contain the cDNA of human transporters OAT4 and URAT1 downstream of a cytomegalovirus (CMV) promotor were generated as previously described (Smeets et al. [2020]). As a negative control, baculovirus containing the gene for enhanced yellow fluorescence protein (eYFP) was produced similarly. Moreover, transduction of HEK293 cells and uptake assays were essentially performed as previously described (Smeets et al. [2020]). The culture medium was removed and cells were washed with buffer (HBSS plus 10 mM HEPES, pH 7.4). Uptake was initiated by replacing this solution with 150 µL of fresh transport buffer (HBSS (Life Technologies Invitrogen (Carlsbad, CA, USA))-HEPES (Sigma-Aldrich), pH 7.4) supplemented with the PFASs for 10 min. To terminate the reaction, transport buffer was replaced with 400 µL ice-cold HBSS-HEPES buffer containing 0.5% BSA (m/v; Roche Diagnostics GmbH (Mannheim, Germany)), after which the cells were washed twice with ice-cold HBSS-HEPES. Cellular PFAS concentrations were determined based on the method described by Rosenmai et al. ([2018]). Briefly, cells were solubilised in 250 µL lysis buffer and cell lysates were stored in Eppendorf tubes at − 80 °C and defrozen when needed for LC–MS analysis and for quantification of the protein concentration.
(§2) To 50 μL cell lysate, 850 μL methanol (Actu-All Chemicals, Oss, The Netherlands) containing internal standards (^13C4-PFHpA, ^13C4-PFOA, ^13C5-PFNA, ^13C2-PFDA, ^13C3-PFBS, ^18O2-PFHxS and ^13C4-PFOS (Wellington Laboratories, Canada) was added. These dilutions were vortexed well before centrifugation at maximum speed for 10 min at 4 °C. PFAS concentrations in the supernatant were determined using LC–MS/MS analysis. If required, samples were further diluted with methanol and containing internal standards. LC–MS/MS analysis was based on a Shimadzu UHPLC system containing: 2 pumps (LC 20AD xr); column oven (Shimadzu CTO-20AC); pump switch (Shimadzu FCV-11AL); degasser (Shimadzu DGU-20A3); and sample tray holder (Shimadzu SIL-20 AC XR model) (Shimadzu Corporation, Kyoto, Japan). An Acquity BEH-C18 analytical column (50 × 2.1 mm i.d., 1.7 μm, Waters, Milford, MA, USA) was used to separate the PFASs at a column temperature of 35 °C. In addition, a symmetry C18 analytical column (50 × 2.1 mm i.d., 5 µm, Waters, Milford, MA, USA) was used as a guard column, placed between the pump and the injector valve to isolate and delay interferences out of the LC system. The mobile phase consisted of 2 mM ammonium acetate (Merck Millipore, Darmstadt, Germany) in Milli-Q water (prepared using a Milli-Q system with a resistivity of at least 18.2 MΩ cm^−1 (Merck Millipore)) (mobile phase A) and Acetonitrile ULC/MS grade (Actu-All Chemicals, Oss, The Netherlands) (mobile phase B). The injection volume used was 20 μL. The chromatographic gradient was operated at a flow rate of 0.3 mL min^−1 starting from 25% mobile phase B in the first 0.1 min, a linear increase to 100% B in 6 min with a final hold of 2.5 min. The gradient was returned to 25% B within 0.1 min for 3.9 min to equilibrate before the next injection, resulting in a total run of 12.5 min.
(§3) Cellular PFAS content was normalised to cellular protein. To that end, from each cell lysate, 25 µL was used to determine the protein concentration (technical duplicate) using the Pierce BCA Protein Assay Kit (Thermo Scientific, Waltham, MA). First, samples were diluted two times with lysis buffer directly in a 96-wells plate (PS, F-bottom, clear; Greiner Bio-One, Alphen aan de Rijn, The Netherlands), and in each plate, a BSA standard curve (0.05–2 mg mL^−1 in lysis buffer) was included allowing protein quantification of the samples. The manufacturer’s protocol was followed for the subsequent steps and absorbance was measured using a microplate reader (Synergy™ HT BioTek, Winooski, VT) at 562 nm. […]

In another series the test system is albumin. The conditions noted are these: cited from earlier work; for Reported albumin/water partition coefficients: ref Allendorf et al. (2019).
For the next series, the target named is T2, human OAT4 (Homo sapiens, UniProt Q9NSA0).
T2 construct: expressed in transfected cells; host or cells: HEK293 cells transduced with recombinant baculovirus (CMV promoter)
T2 sequence (Q9NSA0 1-550): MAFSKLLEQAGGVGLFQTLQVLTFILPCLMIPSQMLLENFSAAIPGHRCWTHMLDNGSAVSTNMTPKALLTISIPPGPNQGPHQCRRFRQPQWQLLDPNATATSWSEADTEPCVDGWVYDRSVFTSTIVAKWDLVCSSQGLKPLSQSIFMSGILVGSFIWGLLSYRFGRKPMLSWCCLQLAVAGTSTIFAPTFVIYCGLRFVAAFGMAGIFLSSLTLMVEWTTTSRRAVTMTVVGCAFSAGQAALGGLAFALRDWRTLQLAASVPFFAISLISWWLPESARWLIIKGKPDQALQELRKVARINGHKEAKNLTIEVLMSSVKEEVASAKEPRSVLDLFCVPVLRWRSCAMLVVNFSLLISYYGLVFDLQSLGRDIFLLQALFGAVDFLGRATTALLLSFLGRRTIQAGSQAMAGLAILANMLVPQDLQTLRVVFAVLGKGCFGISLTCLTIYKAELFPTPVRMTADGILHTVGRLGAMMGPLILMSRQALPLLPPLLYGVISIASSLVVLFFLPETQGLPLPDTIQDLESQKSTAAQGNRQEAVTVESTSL
In words: Screening of cellular PFAS accumulation in OAT4-transfected vs control-transfected HEK293 cells (PFAS mixture). In kind it is cell-based. The conditions noted are these: for Transport by OAT4 (cellular PFAS level in OAT4-transfected vs control-transfected cells; substantial = at least twofold higher): PFAS mixture, each 1 µM, 10 min; for OAT4 substrate: yes/no as identified in vitro in this study.
Description: as §1, §2, §3

Substrate in series [2]: O=C(O)C(F)(F)C(F)(F)C(F)(F)C(F)(F)C(F)(F)C(F)(F)C(F)(F)C(F)(F)C(F)(F)F
In words: cells, lysate or membranes. The conditions noted are these: other: OAT4-transfected minus control-transfected HEK293 cells, 1 min exposure, 1-300 µM; best-fit value (standard error); pH 7.4.

Substrate in series [3]: O=S(=O)(O)C(F)(F)C(F)(F)C(F)(F)C(F)(F)C(F)(F)C(F)(F)C(F)(F)C(F)(F)F
In words: cells, lysate or membranes. The conditions noted are these: other: OAT4-transfected minus control-transfected HEK293 cells, 1 min exposure, 1-300 µM; best-fit value (standard error); pH 7.4.

Substrate in series [4]: O=C(O)C(F)(F)C(F)(F)C(F)(F)C(F)(F)C(F)(F)C(F)(F)C(F)(F)C(F)(F)F
Nature of the series: cells, lysate or membranes. The conditions noted are these: other: OAT4-transfected minus control-transfected HEK293 cells, 1 min exposure, 1-300 µM; best-fit value (standard error); pH 7.4.

Substrate in series [5]: O=C(O)C(F)(F)C(F)(F)C(F)(F)C(F)(F)C(F)(F)C(F)(F)F
In words: OAT4-mediated cellular uptake kinetics (Michaelis–Menten) in OAT4-transfected vs control-transfected HEK293 cells. In kind it is cell-based, human. The conditions noted are these: other: OAT4-transfected minus control-transfected HEK293 cells, 1 min exposure, 1-300 µM; best-fit value (standard error); pH 7.4.

Substrate in series [6]: O=C(O)C(F)(F)C(F)(F)C(F)(F)C(F)(F)C(F)(F)C(F)(F)C(F)(F)F
Described as above. The format is cell-based, human. The conditions noted are these: other: OAT4-transfected minus control-transfected HEK293 cells, 1 min exposure, 1-300 µM; best-fit value (standard error); pH 7.4.

Substrate in series [7]: O=S(=O)(O)C(F)(F)C(F)(F)C(F)(F)C(F)(F)C(F)(F)C(F)(F)F
Described as above. The format is cell-based, human. To be noted: other: OAT4-transfected minus control-transfected HEK293 cells, 1 min exposure, 1-300 µM; best-fit value (standard error); pH 7.4.

“Also recorded” adds a separate entry of the source. Marks after values point to notes of the source that are not given here.

Consider `O=S(=O)(O)C(F)(F)C(F)(F)C(F)(F)C(F)(F)F` [PFBS, perfluorobutane sulfonate], for which, in series [1], the “Reported half-life in humans” value is 0.07–0.12^d years and the “Reported (average) serum half-life in humans” value was 26 to 44 days. Also, on human URAT1, the URAT1 substrate result is recorded as “No”. The Binding to albumin result with albumin (compared to the other PFASs, ref Allendorf et al. 2019, Gao et al. 2019, Lu et al. 2021) is listed as “relatively low binding to albumin”. For the same molecule, on human OAT4, the “Transport by OAT4 (cellular PFAS level in OAT4-transfected vs control-transfected cells; substantial = at least twofold higher)” value is given as “rather limited; also recorded: limited transport” and the OAT4 substrate entry was “No”.

Turning to `O=C(O)C(F)(F)C(F)(F)C(F)(F)C(F)(F)C(F)(F)C(F)(F)F` [PFHpA, Perfluoroheptanoic acid], in series [1], the “Reported half-life in humans” value is recorded as 0.17^b years and the “Reported (average) serum half-life in humans” value was 62 days. Further, the URAT1 substrate result at human URAT1 was “No”. Further, in the series with albumin, the “Reported albumin/water partition coefficients” value is 4.0 L/kg. On human OAT4, the “Transport by OAT4 (cellular PFAS level in OAT4-transfected vs control-transfected cells; substantial = at least twofold higher)” value is “substantial transport; also recorded: more than twofold increase” and the OAT4 substrate result is “Yes”.

For the molecule `O=C(O)C(F)(F)C(F)(F)C(F)(F)C(F)(F)C(F)(F)C(F)(F)C(F)(F)C(F)(F)C(F)(F)F` [PFDA, perfluorodecanoic acid], at human URAT1, the URAT1 substrate result is “No”. Further, the “Reported albumin/water partition coefficients” value with albumin was 4.7 L/kg. Moreover, at human OAT4, the “Transport by OAT4 (cellular PFAS level in OAT4-transfected vs control-transfected cells; substantial = at least twofold higher)” value is “substantial transport; also recorded: more than twofold increase” and the OAT4 substrate result was “Yes”.

Regarding `O=S(=O)(O)C(F)(F)C(F)(F)C(F)(F)C(F)(F)C(F)(F)C(F)(F)F` [PFHxS, Perfluorohexane sulfonate], the “Reported half-life in humans” value in [1] is reported as 2.9–8.5^c years. The URAT1 substrate entry on human URAT1 is reported as “No”. For the same molecule, at human OAT4, the “Transport by OAT4 (cellular PFAS level in OAT4-transfected vs control-transfected cells; substantial = at least twofold higher)” value is given as “substantial transport; also recorded: more than twofold increase” and the OAT4 substrate result is “Yes”.

B1: human OAT4 (Homo sapiens) (protein)
chain: T2 sequence (Q9NSA0 1-550)
notes: expressed in transfected cells; host or cells: HEK293 cells transduced with recombinant baculovirus (CMV promoter)
Consider B1, for which the Km in [2] is 39 (15) µM; in [3], 48 (24) µM; in [4], 58 (15) µM; in series [5], 60 (15) µM; in series [6], 47 (15) µM; in [7], 92 (33) µM. In addition, the Vmax (usually the top rate of the reaction or transport when substrate is in excess) was found to be 0.006 µmol/min/mg in series [2]; 0.0022 µmol/min/mg in series [3]; 0.0085 µmol/min/mg in [4]; 0.0045 µmol/min/mg in series [5]; 0.0045 µmol/min/mg in series [6]; 0.0073 µmol/min/mg in series [7]. Further, the Vmax/Km in [2] is on record as 154 µL min^−1 mg protein^−1; in [3], 46 µL min^−1 mg protein^−1; in series [4] it was 147 µL min^−1 mg protein^−1; in series [5] it was 75 µL min^−1 mg protein^−1; in [6], 96 µL min^−1 mg protein^−1; in series [7] it was 79 µL min^−1 mg protein^−1.

Source of the values: publication PMC9968691, “Perfluoroalkyl substances (PFASs) are substrates of the renal human organic anion transporter 4 (OAT4)” (Archives of Toxicology, 2022).
